{"source": "patent US20020026053A1", "about": "“Novel 3-(substituted) -2- indolinones compounds and use thereof as inhibitors of protein kinase activity” (priority 1997, published 2002)"}
{"biological_target": "T1, Met receptor (EGFR/Met chimeric cells, EMR) (Homo sapiens, UniProt P08581)", "T1 construct": "expressed in transfected cells; the other entry of the earlier key: EGFR (P00533, Epidermal growth factor receptor)", "T1 sequence (P08581 with tags, fused parts or gaps)": "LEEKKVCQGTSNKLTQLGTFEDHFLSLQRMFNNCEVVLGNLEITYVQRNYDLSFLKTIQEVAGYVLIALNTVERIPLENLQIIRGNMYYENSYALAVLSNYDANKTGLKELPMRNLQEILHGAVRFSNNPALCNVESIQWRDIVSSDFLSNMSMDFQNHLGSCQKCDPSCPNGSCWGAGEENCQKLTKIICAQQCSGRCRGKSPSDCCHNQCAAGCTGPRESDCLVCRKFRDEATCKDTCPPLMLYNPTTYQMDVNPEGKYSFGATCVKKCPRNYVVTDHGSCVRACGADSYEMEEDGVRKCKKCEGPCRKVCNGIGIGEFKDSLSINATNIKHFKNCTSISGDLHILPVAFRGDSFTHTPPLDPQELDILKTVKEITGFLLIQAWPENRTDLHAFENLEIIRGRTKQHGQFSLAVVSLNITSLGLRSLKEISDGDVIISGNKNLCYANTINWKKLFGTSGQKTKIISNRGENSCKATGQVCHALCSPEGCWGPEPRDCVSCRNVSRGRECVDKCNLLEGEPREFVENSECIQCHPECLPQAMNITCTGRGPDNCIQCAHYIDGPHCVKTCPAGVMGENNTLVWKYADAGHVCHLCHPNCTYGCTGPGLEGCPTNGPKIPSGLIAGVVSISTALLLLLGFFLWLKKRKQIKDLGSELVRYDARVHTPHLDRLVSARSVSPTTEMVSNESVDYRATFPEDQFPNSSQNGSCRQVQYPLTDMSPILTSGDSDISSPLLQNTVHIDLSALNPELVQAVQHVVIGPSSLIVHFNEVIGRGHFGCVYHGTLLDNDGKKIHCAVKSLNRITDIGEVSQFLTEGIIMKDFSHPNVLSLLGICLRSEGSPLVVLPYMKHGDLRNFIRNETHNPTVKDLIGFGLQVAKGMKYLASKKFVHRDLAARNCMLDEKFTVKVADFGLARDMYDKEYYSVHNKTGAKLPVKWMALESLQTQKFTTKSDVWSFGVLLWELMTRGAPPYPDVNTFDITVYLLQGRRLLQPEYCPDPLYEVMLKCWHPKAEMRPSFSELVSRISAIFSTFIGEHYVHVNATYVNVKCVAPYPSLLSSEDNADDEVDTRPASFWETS", "experiment": "Met Autophosphorylation Assay", "format": "biochemical", "description": "Met Autophosphorylation Assay\nThis assay determines Met tyrosine kinase activity by analyzing Met protein tyrosine kinase levels on the Met receptor.\na. HNTG (5× stock solution): Dissolve 23.83 g HEPES and 43.83 g NaCl in about 350 ml dH2O. Adjust pH to 7.2 with HCl or NaOH, add 500 ml glycerol and 10 ml Triton X-100, mix, add dH2O to 1 L total volume. To make 1 L of 1× working solution add 200 ml 5× stock solution to 800 ml dH2O, check and adjust pH as necessary, store at 4° C.\nb. PBS (Dulbecco's Phosphate-Buffered Saline), Gibco Cat. # 450-1300EB (1× solution).\nc. Blocking Buffer: in 500 ml dH2O place 100 g BSA, 12.1 g Tris-pH7.5, 58.44 g NaCl and 10 ml Tween-20, dilute to 1 L total volume.\nd. Kinase Buffer: To 500 ml dH2O add 12.1 g TRIS (pH 7.2), 58.4 g NaCl, 40.7 g MgCl2 and 1.9 g EGTA; bring to 1 L total volume with dH2O.\ne. PMSF (Phenylmethylsulfonyl fluoride), Sigma Cat. # P-7626, to 435.5 mg, add 100% ethanol to 25 ml total volume, vortex.\nf. ATP (Bacterial Source), Sigma Cat. # A-7699, store powder at −20° C.; to make up solution for use, dissolve 3.31 mg in 1 ml dH2O.\ng. RC-20H HRPO Conjugated Anti-Phosphotyrosine, Transduction Laboratories Cat. # E120H.\nh. Pierce 1-Step Turbo™ B-ELISA (3,3′,5,5′-tetramethylbenzidine, Pierce Cat. # 34022.\ni. H2SO4, add 1 ml conc.(18 N) to 35 ml dH2O.\nj. TRIS HCL, Fischer Cat. # BP152-5; to 121.14 g of material, add 600 ml MilliQ H2O, adjust pH to 7.5 (or 7.2) with HCl, bring volume to 1 L with MilliQ H2O.\nk. NaCl, Fischer Cat. # S271-10, make up 5M solution.\nm. Na3VO4, Fischer Cat. # S454-50, to 1.8 g material add 80 ml MilliQ H2O, adjust pH to 10.0 with HCl or NaOH, boil in microwave, cool, check pH, repeat procedure until pH stable at 10.0, add MilliQ H2O to 100 ml total volume, make 1 ml aliquots and store at −80° C.\nn. MgCl2, Fischer Cat. # M33-500, make up 1M solution.\no. HEPES, Fischer Cat. # BP310-500, to 200 ml MilliQ H2O, add 59.6 g material, adjust pH to 7.5, bring volume to 250 ml total, sterile filter.\np. Albumin, Bovine (BSA), Sigma Cat. # A-4503, to 30 grams material add sterile distilled water to make total volume of 300 ml, store at 4° C.\nq. TBST Buffer: to approx. 900 ml dH2O in a 1 L graduated cylinder add 6.057 g TRIS and 8.766 g NaCl, when dissolved, adjust pH to 7.2 with HCl, add 1.0 ml Triton X-100 and bring to 1 L total volume with dH2O.\nr. Goat Affinity purified antibody Rabbit IgG (whole molecule), Cappel Cat. # 55641.\ns. Anti h-Met (C-28) rabbit polyclonal IgG antibody, Santa Cruz Chemical Cat. # SC-161.\nt. Transiently Transfected EGFR/Met chimeric cells (EMR) (Komada, et al., Oncogene, 8:2381-2390 (1993).\nu. Sodium Carbonate Buffer, ([…], Fischer Cat. # S495) to 10.6 g material add 800 ml MilliQ H2O, when dissolved adjust pH to 9.6 with NaOH, bring up to 1 L total volume with MilliQ H2O, filter, store at 4° C.\nAll of the following steps are conducted at room temperature unless it is specifically indicated otherwise. All ELISA plate washing is by rinsing 4× with TBST.\nThis procedure can be performed the night before or immediately prior to the start of receptor capture.\n1. Quick thaw lysates in a 37° C. waterbath with a swirling motion until the last crystals disappear.\n2. Lyse cell pellet with 1× HNTG containing 1 mM PMSF. Use 3 ml of HNTG per 15 cm dish of cells. Add ½ the calculated HNTG volume, vortex the tube for 1 min., add the remaining amount of HNTG, vortex for another min.\n3. Balance tubes, centrifuge at 10,000× g for 10 min at 4° C.\n4. Pool supernatants, remove an aliquot for protein determination.\n5. Quick freeze pooled sample in dry ice/ethanol bath. This step is performed regardless of whether lysate will be stored overnight or used immediately following protein determination.\n6. Perform protein determination using standard bicinchoninic acid (BCA) method (BCA Assay Reagent Kit from Pierce Chemical Cat. # 23225).\n1. Coat Corning 96 well ELISA plates with 5 μg per well Goat anti-Rabbit antibody in Carbonate Buffer for a total well volume of 50 μl. Store overnight at 4° C. […]", "units": {"Met Kinase % Inhibition (P.130)": "%"}}
{"smiles": "C=C(C)C1CC=C(C=C2C(=O)Nc3c(Br)cc(Br)c(C)c32)CC1", "note": "(stereo not drawn) [10731/H04]", "Met Kinase % Inhibition (P.130)": 41.0}
{"smiles": "Cc1c(Br)cc(Br)c2c1C(=Cc1coc3ccc(C(C)C)cc3c1=O)C(=O)N2", "note": "[10731/H05]", "Met Kinase % Inhibition (P.130)": 32.2}
{"smiles": "Cc1ccc2occ(C=C3C(=O)Nc4c(Br)cc(Br)c(C)c43)c(=O)c2c1", "note": "[10731/H06]", "Met Kinase % Inhibition (P.130)": 17.2}
{"smiles": "Cc1c(Br)cc(Br)c2c1C(=Cc1coc3ccc([N+](=O)[O-])cc3c1=O)C(=O)N2", "note": "[10731/H07]", "Met Kinase % Inhibition (P.130)": 1.8}
{"smiles": "Cc1c(Br)cc(Br)c2c1C(=Cc1c[nH]c(=O)[nH]c1=O)C(=O)N2", "note": "[10731/H08]", "Met Kinase % Inhibition (P.130)": 10.9}
{"smiles": "COc1ccc2[nH]cc(C=C3C(=O)Nc4c(Br)cc(Br)c(C)c43)c2c1", "note": "[10731/H09]", "Met Kinase % Inhibition (P.130)": 12.8}
{"smiles": "Cc1c(Br)cc(Br)c2c1C(=C1C(=O)N(C)c3ccccc31)C(=O)N2", "note": "[10731/H10]", "Met Kinase % Inhibition (P.130)": 28.4}
{"smiles": "Cc1c(Br)cc(Br)c2c1C(=CC(c1cccs1)C(F)(F)F)C(=O)N2", "note": "(stereo not drawn) [10732/H02]", "Met Kinase % Inhibition (P.130)": 56.8}
{"smiles": "COc1c(C(C)C)cc(C=C2C(=O)Nc3c(Br)cc(Br)c(C)c32)cc1C(C)C", "note": "[10732/H03]", "Met Kinase % Inhibition (P.130)": 24.1}
{"smiles": "Cc1c(Br)cc(Br)c2c1C(=Cc1cc(C(C)C)c(Oc3ccccc3)c(C(C)C)c1)C(=O)N2", "note": "[10732/H04]", "Met Kinase % Inhibition (P.130)": 57.6}
{"smiles": "COc1ccc(C=C2C(=O)Nc3c(Br)cc(Br)c(C)c32)cc1C(C)(C)C", "note": "[10732/H05]", "Met Kinase % Inhibition (P.130)": 13.3}
{"smiles": "Cc1c(Br)cc(Br)c2c1C(=Cc1ccc(OCc3ccccc3)c(C(C)(C)C)c1)C(=O)N2", "note": "[10732/H06]", "Met Kinase % Inhibition (P.130)": 31.1}
{"smiles": "COc1c(Br)cc(C=C2C(=O)Nc3c(Br)cc(Br)c(C)c32)cc1C(C)(C)C", "note": "[10732/H07]", "Met Kinase % Inhibition (P.130)": 26.7}
{"smiles": "Cc1c(Br)cc(Br)c2c1C(=Cc1cc(Br)c(OCc3ccccc3)c(C(C)(C)C)c1)C(=O)N2", "note": "[10732/H08]", "Met Kinase % Inhibition (P.130)": 38.7}
{"smiles": "COc1c(Cl)cc(C=C2C(=O)Nc3c(Br)cc(Br)c(C)c32)cc1C(C)(C)C", "note": "[10732/H09]", "Met Kinase % Inhibition (P.130)": 49.8}
{"smiles": "Cc1c(Br)cc(Br)c2c1C(=Cc1cc(Cl)c(OCc3ccccc3)c(C(C)(C)C)c1)C(=O)N2", "note": "[10732/H10]", "Met Kinase % Inhibition (P.130)": 28.0}
{"smiles": "COc1c(I)cc(C=C2C(=O)Nc3c(Br)cc(Br)c(C)c32)cc1C(C)(C)C", "note": "[10732/H11]", "Met Kinase % Inhibition (P.130)": 46.7}
{"smiles": "Cc1c(Br)cc(Br)c2c1C(=Cc1cc(I)c(OCc3ccccc3)c(C(C)(C)C)c1)C(=O)N2", "note": "[10733/H02]", "Met Kinase % Inhibition (P.130)": 38.9}
{"smiles": "COc1c([N+](=O)[O-])cc(C=C2C(=O)Nc3c(Br)cc(Br)c(C)c32)cc1C(C)(C)C", "note": "[10733/H03]", "Met Kinase % Inhibition (P.130)": 0.6}
{"smiles": "COc1c(C(C)(C)C)cc(C=C2C(=O)Nc3c(Br)cc(Br)c(C)c32)cc1C(C)(C)C", "note": "[10733/H04]", "Met Kinase % Inhibition (P.130)": 11.9}
{"smiles": "Cc1c(Br)cc(Br)c2c1C(=Cc1cc(C(C)(C)C)c(OCc3ccccc3)c(C(C)(C)C)c1)C(=O)N2", "note": "[10733/H05]", "Met Kinase % Inhibition (P.130)": 5.6}
{"smiles": "COc1c(C)cc(C=C2C(=O)Nc3c(Br)cc(Br)c(C)c32)cc1C", "note": "[10733/H06]", "Met Kinase % Inhibition (P.130)": 18.4}
{"smiles": "Cc1cc(C=C2C(=O)Nc3c(Br)cc(Br)c(C)c32)cc(C)c1OCc1ccccc1", "note": "[10733/H07]", "Met Kinase % Inhibition (P.130)": "−1.3"}
{"smiles": "COc1cc(Br)cc(C=C2C(=O)Nc3c(Br)cc(Br)c(C)c32)c1O", "note": "[10733/H08]", "Met Kinase % Inhibition (P.130)": 41.6}
{"smiles": "Cc1c(Br)cc(Br)c2c1C(=Cc1cc(Br)ccc1O)C(=O)N2", "note": "[10733/H09]", "Met Kinase % Inhibition (P.130)": 51.9}
{"smiles": "Cc1c(Br)cc(Br)c2c1C(=Cc1cc([N+](=O)[O-])ccc1O)C(=O)N2", "note": "[10733/H10]", "Met Kinase % Inhibition (P.130)": 26.5}
{"smiles": "COc1c(O)ccc(C=C2C(=O)Nc3c(Br)cc(Br)c(C)c32)c1[N+](=O)[O-]", "note": "[10733/H11]", "Met Kinase % Inhibition (P.130)": 76.7}
